Data from patent US7807867B2, “Gene encoding protein involved in cytokinin synthesis” (Suntory Holdings Limited, priority 2001, dated 2010).
Values belong to the molecule of their own block, whether it stands above or below them.

Experiments:
AtIPT1 = biological target: T1, AtIPT1 (Arabidopsis thaliana, UniProt Q94ID3); assay: Enzyme activity of AtIPT1 protein (dimethylallyl transfer); type: biochemical
T1 construct: made in house
T1 sequence (Q94ID3 72-357): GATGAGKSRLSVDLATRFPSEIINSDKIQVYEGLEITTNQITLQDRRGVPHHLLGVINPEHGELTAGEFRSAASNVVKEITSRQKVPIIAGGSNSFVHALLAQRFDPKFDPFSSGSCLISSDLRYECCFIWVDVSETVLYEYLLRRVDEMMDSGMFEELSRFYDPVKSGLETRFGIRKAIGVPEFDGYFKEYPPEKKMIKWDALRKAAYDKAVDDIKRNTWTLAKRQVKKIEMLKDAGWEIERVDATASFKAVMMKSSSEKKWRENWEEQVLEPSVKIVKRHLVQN

AtIPT4 = biological target: T2, AtIPT4 (Arabidopsis thaliana, UniProt Q9SB60); assay: Enzyme activity of purified AtIPT4 protein (dimethylallyl transfer, Km); type: biochemical; settings: for transfer of the dimethylallyl group of DMAPP to the substrate: 3H-labeled substrate at 0.25 μM, Ni-NTA bound AtIPT4 (Sample D), 30 minutes at 23° C.
T2 construct: made in house
T2 sequence (Q9SB60 1-318): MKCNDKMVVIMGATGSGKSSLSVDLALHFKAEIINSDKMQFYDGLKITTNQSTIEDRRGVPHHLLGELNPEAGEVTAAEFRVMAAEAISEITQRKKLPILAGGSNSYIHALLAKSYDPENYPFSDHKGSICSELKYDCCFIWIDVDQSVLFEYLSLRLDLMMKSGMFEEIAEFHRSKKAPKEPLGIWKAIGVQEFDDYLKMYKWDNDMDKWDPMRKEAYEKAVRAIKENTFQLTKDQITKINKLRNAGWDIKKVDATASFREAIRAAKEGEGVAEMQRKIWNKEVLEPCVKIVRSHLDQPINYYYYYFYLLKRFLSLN
Description: This was designated as Sample A. 400 μl of Ni-NTA agarose suspension (containing 110 μl of Ni-NTA agarose as precipitate, 30 mM NaH2PO4 (pH 8), […], 0.9 M NaCl, 7.5 mM β-mercaptoethanol, 0.5 mM PMSF and 30 μg/ml of leupeptin) were added to 800 μl of Sample A. This suspension was designated as Sample B. Sample B was then centrifuged to separate into supernatant (Sample C) and precipitate. Washing liquid (consisting of 20 mM NaH2PO4 (pH 8), […], 0.3 M NaCl, 5 mM β-mercaptoethanol, 0.5 mM PMSF and 10 μg/ml of leupeptin) was added to the precipitate, and the Ni-NTA agarose was washed four times using a procedure in which the precipitate was recovered by centrifugation. […] After adding 700 μl of ethyl acetate to this reaction liquid followed by stirring and centrifuging, 550 μl of the ethyl acetate layer were recovered followed by the addition of 500 μl of distilled water. After stirring and centrifugal separation, 350 μl of the ethyl acetate layer were recovered followed again by the addition of 500 μl of distilled water. After again stirring and separating by centrifugation, 0.5 ml of ACSII (Pharmacia) were added to 50 μl of the ethyl acetate layer followed by measurement of radioactivity with a liquid scintillation counter.

tzs = tzs (Agrobacterium fabrum, UniProt P58758); settings: read-out: Km of tzs for AMP; cited from earlier work
[1] = substrate: CC(C)=CCOP(=O)(O)OP(=O)(O)O; assay: purified protein, by the assay type; settings: other: in the presence of 200 μM ATP; purified recombinant AtIPT4 protein; 23.0 °C

Sequence of tzs (P58758 whole entry): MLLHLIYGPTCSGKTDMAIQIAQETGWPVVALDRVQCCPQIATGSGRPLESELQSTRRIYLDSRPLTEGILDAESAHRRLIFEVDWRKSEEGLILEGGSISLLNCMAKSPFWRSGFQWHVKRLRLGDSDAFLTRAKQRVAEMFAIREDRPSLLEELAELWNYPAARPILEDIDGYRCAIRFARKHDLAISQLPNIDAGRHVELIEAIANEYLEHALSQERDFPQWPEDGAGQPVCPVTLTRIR

transfer of the dimethylallyl group of DMAPP to the substrate (AtIPT4): efficiently transferred
Molecule: Nc1ncnc2c1ncn2[C@@H]1O[C@H](COP(=O)(O)OP(=O)(O)O)[C@@H](O)[C@H]1O [ADP]
transfer of a dimethylallyl group to the substrate (AtIPT1): activity that transfers a dimethylallyl group

Molecule: Nc1ncnc2c1ncn2[C@@H]1O[C@H](COP(=O)(O)O)[C@@H](O)[C@H]1O [AMP, adenosine monophosphate]
Km (tzs): 11.1 µM

Molecule: Nc1ncnc2c1ncn2[C@@H]1O[C@H](COP(=O)(O)OP(=O)(O)OP(=O)(O)O)[C@@H](O)[C@H]1O [ATP]
transfer of a dimethylallyl group to the substrate (AtIPT1): activity that transfers a dimethylallyl group
transfer of the dimethylallyl group of DMAPP to the substrate (AtIPT4): efficiently transferred
Km (AtIPT4; in the presence of 0.4 mM DMAPP, purified recombinant AtIPT4 protein (2 ng/ml), read-out: Km for ATP): ~11.1 µM

B1: AtIPT4 (Arabidopsis thaliana) (protein)
chain: T2 sequence (Q9SB60 1-318)
Km [1]: 6.5 µM
